The source of these data is patent US20090156517A1, “STABLE PHARMACEUTICAL COMPOSITIONS OF AMINOGLYCOSIDE ANTIBIOTICS, ION-CHELATING AGENTS, AND BUFFERS” (priority 2006, published 2009).

Data set [1] in a line: HIAC light obscuration test (USP 788), aggregate particle content. In kind it is physicochemical. As to conditions: composition prepared as a liquid solution. How it is done: Light obscuration testing was performed for solution preparations prepared with some of the compositions described in the examples according to the method described in the United States Pharmacopeia (USP 788) using HIAC-3000 light obscuration detector. Particle content is denoted by the number of particles per milliliter of solution. The value is an average of two measurements. Samples were tested at 1 hour and at 20 hours.

The nature of data set [2]: Amounts of antibiotic components in the solution over time (reverse-phase LC/UV for β-lactams and β-lactamase inhibitors, HPLC/evaporation-light-scattering for aminoglycosides). In kind it is physicochemical. As to conditions: room temperature. The protocol: The amounts of β-lactam antibiotics and β-lactamase inhibitor were determined using C18 reverse-phase LC and UV-VIS detector (Tianjin […] Co., Ltd., analysis method No. HM-K-03). The content of aminoglycoside antibiotics was measured using reverse-phase HPLC and evaporation-light-scattering detector (Tianjin […] Co., Ltd., analysis method No. HM-K-08). […] The relative amount of each antibiotic component in the composition at each time point was expressed as peak area ratio with respect to the corresponding peak area of an external standard.

Entries after “also recorded” stand apart in the source; their conditions may differ.

Take `O=C(O)CN(CCN(CC(=O)O)CC(=O)O)CC(=O)O` [EDTA, ethylenediamine tetraacetic acid]: in data set [1], the “Effect on aggregate particle formation in the solution preparations” value is given as “significantly reduce aggregate particle formation; also recorded: effective in inhibiting formation of aggregate particles”.

Turning to `C[C@]1(Cn2ccnn2)[C@H](C(=O)O)N2C(=O)C[C@H]2S1(=O)=O` [Tazobactam sodium, tazobactam sodium], the “Amount of component, percentage of amount at initial time” value is given as 102.2% in data set [2] (Example 8 solution (ceftriaxone sodium, tazobactam sodium, gentamicin sulfate, sodium citrate pH 6.75), 0 h); 97.53% in data set [2] (Example 8 solution (ceftriaxone sodium, tazobactam sodium, gentamicin sulfate, sodium citrate pH 6.75), 1 h); 94.16% in data set [2] (Example 8 solution (ceftriaxone sodium, tazobactam sodium, gentamicin sulfate, sodium citrate pH 6.75), 2 h); 94.58% in data set [2] (Example 8 solution (ceftriaxone sodium, tazobactam sodium, gentamicin sulfate, sodium citrate pH 6.75), 4 h); 95.45% in data set [2] (Example 8 solution (ceftriaxone sodium, tazobactam sodium, gentamicin sulfate, sodium citrate pH 6.75), 6 h); 94.44% in data set [2] (Example 8 solution (ceftriaxone sodium, tazobactam sodium, gentamicin sulfate, sodium citrate pH 6.75), 8 h). The “Amount of component, percentage of amount at initial time” value in data set [2] (Example 14: cefoperazone sodium/tazobactam sodium solution pH 6.75, disodium EDTA and amikacin sulfate added, 0 h) is listed as 98.5%; in data set [2] (Example 14: cefoperazone sodium/tazobactam sodium solution pH 6.75, disodium EDTA and amikacin sulfate added, 1 h), 98.7%; in data set [2] (Example 14: cefoperazone sodium/tazobactam sodium solution pH 6.75, disodium EDTA and amikacin sulfate added, 2 h), 98.2%; in data set [2] (Example 14: cefoperazone sodium/tazobactam sodium solution pH 6.75, disodium EDTA and amikacin sulfate added, 4 h) it was 95.6%; in data set [2] (Example 14: cefoperazone sodium/tazobactam sodium solution pH 6.75, disodium EDTA and amikacin sulfate added, 6 h), 94.0%; in data set [2] (Example 14: cefoperazone sodium/tazobactam sodium solution pH 6.75, disodium EDTA and amikacin sulfate added, 8 h) it was 96.1%.

With gentamicin, the “Amount of component, percentage of amount at initial time” value was 102.1% in data set [2] (Example 5 solution (cefoperazone sodium, sulbactam sodium, gentamicin, disodium EDTA, sodium citrate pH 6.75), 0 h); 104.6% in data set [2] (Example 5 solution (cefoperazone sodium, sulbactam sodium, gentamicin, disodium EDTA, sodium citrate pH 6.75), 1 h); 96.51% in data set [2] (Example 5 solution (cefoperazone sodium, sulbactam sodium, gentamicin, disodium EDTA, sodium citrate pH 6.75), 2 h); 100.4% in data set [2] (Example 5 solution (cefoperazone sodium, sulbactam sodium, gentamicin, disodium EDTA, sodium citrate pH 6.75), 4 h).
